Data on 16 molecules can be found in patent US20250011272A1, “LONG-CHAIN COMPOUND THAT ACTS ON ACLY, PREPARATION METHOD THEREFOR AND USE THEREOF” (SHANGHAIINSTITUTE OF MATERIA MEDICA, CHINESE ACADEMY OF …, priority 2021, published 2025).

The target of one assay is Human ACLY (Homo sapiens (Human), UniProt P53396). The experiment in a line: ACLY enzyme activity test (ADP-Glo luminescence). The format is biochemical. Conditions: 37° C., 30 minutes. An excerpt:
• Instrument: Envision (PerkinElmer, USA) • Materials: Acl—human ACLY/acly/ATP citrate lyase protein (His tag) was purchased from Sino Biological; kinase assay kit ADP-GLO (promega #V9102).
Experimental principle: In this experiment, the ATP-dependent citrate lyase ACL catalyzes the conversion of citrate to acetyl coenzyme A, which in turn produces malonyl coenzyme A, a precursor molecule for fatty acid synthesis, and this reaction is accompanied by ATP depletion, so the change in ATP can be detected using the ADP-Glo Kinase Assay (#V9102) to indirectly reflect the inhibitory effect of the compound on the enzymatic activity of ACL. This kinase detection kit can quantitatively determine the amount of ADP catalyzed by ACLY enzyme activity. (First, the compound, the enzyme and the substrate are incubated at 37 degrees for half an hour, ADP-Glo& #V9102; reagent is added and incubated for half an hour to terminate the reaction and consume the remaining ATP; then the kinase detection reagent is added (which converts the ADP to ATP while also detecting the newly synthesized ATP using the coupled […] reaction) and incubated for half an hour. The value is read by using Envision.
Experimental method: ADP Glo luminescence method was used for determination. It reflects the activity of ACLY enzyme by quantitatively detecting the amount of ADP, and the enzymatic reaction catalyzed by ACLY is proportional to the amount of ADP detected by the luminescent signal. Firstly, the compound is diluted with 10% DMSO, and then […] of compound dilution is added to a 5 μl reaction system, so that the final reaction system has a DMSO content of 2%. The enzymatic reaction catalyzed by ACLY was carried out at 37° C. for 30 minutes. 5 μl reaction mixture contained the following components: 40 mM Tris, pH 8.0, 10 mM MgCl2, 5 mM DTT, ATP, CoA, sodium citrate, and ACLY. After the enzymatic reaction was complete, 2.5 μl of ADP Glo reagent was added to each reaction system and incubated at room temperature for 1 hour. Afterwards, 5 μl of kinase detection reagent was added and incubated at room temperature for 30 minutes. The luminous signal was detected using Envision (PerkinElmer, USA).
Data processing: For compound, the activity dose dependent relationship was tested. IC50 value was obtained by non-linear fitting of sample concentration based on sample activity. The software used for calculation was Graphpad Prism 7, and the model used for fitting was sigmoid dose response (variable slope). For most inhibitor screening models, the bottom and top of the fitting curve were set to 0 and 100. In general, each sample is set with multiple wells (n≥2) during testing, which are represented in the results as Standard Deviation (SD) or Standard Error (SE).

A further assay concerns breast cancer cell MCF-7. The experiment in a line: MTS cell proliferation assay, MCF-7. It counts as cell-based. The note with it: Homo sapiens, MCF7; MCF-7, MTS; read-out: IC50, inhibition of proliferation, MCF-7. An excerpt:
(§1) Experimental principle: CellTier 96 ® AQueous One Solution Cell Proliferation Assay (MTS) colorimetric method was used to detect cell proliferation. This analysis method is based on the tetrazole compound (3-(4,5-dimethylthiazol-2-yl)-5-(3-carboxymethoxyphenyl)-2-(4-sulfophenyl)-2H-tetrazolium, internal salt; MTS). The conversion of yellow MTS to blue purple water-soluble formazan is catalyzed by dehydrogenase, which exists in living cells with metabolic activity; Dead cells cannot complete the transformation from MTS to formamide. The amount of formazan determined by absorbance at 490 nm is directly proportional to the number of live cells in culture.
(§2) Sample processing: Dissolve the sample in DMSO and store it at low temperature.
(§3) Cell survival rate was detected by using MTS method, that is, adherent cells growing in logarithmic phase were digested with 0.025% trypsin, and counted; 80 μl cells were inoculated into a 96 well plate at a density of 3000 cells/well for A549 and 5000 cells/well for H358 (all cultured under 1% FBS conditions), and grown overnight in a 5% CO2 and 37° C. incubator. Each compound was diluted with a three-fold concentration gradient, eight concentrations were tested, and three wells were set for each concentration. 20 μl of the diluted compounds was added to the corresponding cell wells. Adherent cells A549 and H358 were cultured in a 5% CO2 and 37° C. incubator for 72 hours; 20 μl of MTS was added separately and incubated for 2 hours in a 5% CO2 and 37° C. incubator. Molecular Device VersaMax was used to test the light absorption value at 490 nm (L1), with a reference wavelength of 690 nm (L2). The (L1−L2) values were plotted against different concentrations of inhibitors and IC50 was obtained by fitting the formula.
(§4) The experimental results were fitted to the IC50 using Graphpad Prism 7. The model used for fitting was log(inhibitor) vs Response—variable slop, and the results of each assay were equipped with triple replicate wells to ensure the accuracy of the experiment. The results were expressed as Standard Deviation (SD) or Standard Error (SE).
(§5) Similarly, the antiproliferative assays of the compounds on pancreatic cancer cell line ASPC-1, human pancreatic cancer cell MIA-PACA and breast cancer cell MCF-7 were performed as above.

Assay [1] has as its system pancreatic cancer cell line ASPC-1. The experiment in a line: MTS cell proliferation assay, ASPC-1. It counts as cell-based. The note with it: Homo sapiens, ASPC1; ASPC-1, MTS; read-out: IC50, inhibition of proliferation, ASPC-1.
From the text: as §1, §2, §3, §4, §5

Assay [2] concerns human pancreatic cancer cell MIA-PACA. The experiment in a line: MTS cell proliferation assay, MIA-PACA. The format is cell-based. Conditions: Homo sapiens, MIA PaCa-2, read-out: IC50, inhibition of proliferation, MIA-PACA.
From the text: as §1, §2, §3, §4, §5

A further assay concerns NCI-H358 cells. The experiment in a line: MTS cell proliferation assay, H358. It counts as cell-based, human. Conditions: Homo sapiens, NCI-H358, H358, 72 hours, 1% FBS, read-out: IC50, inhibition of proliferation, H358.
From the text: (§6) Experimental materials: NCI-H358 cells (H358, human non-small cell lung cancer cells) were purchased from the cell bank/stem cell bank of the Chinese Academy of Sciences; RPMI-1640 culture medium (GIBCO, product number 3180002), and human tumor cell non-small cell lung cancer cell A549 were gifted by the research group of researcher Li Jia from SHANGHAI INSTITUTE OF MATERIA MEDICA, CHINESE ACADEMY OF SCIENCES. CellTier 96® The Aquarius One Solution Cell Promotion Assay (MTS) was purchased from Promega #G3581.
as §1, §2, §3, §4

For a further assay, the system named is A549 cells. The assay is described as follows: MTS cell proliferation assay, A549. Conditions: Homo sapiens, A549, 72 hours, 1% FBS, read-out: IC50, inhibition of proliferation, A549. It counts as cell-based.
From the text: as §6
Experimental principle: CellTier 96 ® AQueous One Solution Cell Proliferation Assay (MTS) colorimetric method was used to detect cell proliferation. […] The amount of formazan determined by absorbance at 490 nm is directly proportional to the number of live cells in culture. […]
Cell survival rate was detected by using MTS method, that is, adherent cells growing in logarithmic phase were digested with 0.025% trypsin, and counted; 80 μl cells were inoculated into a 96 well plate at a density of 3000 cells/well for A549 and 5000 cells/well for H358 (all cultured under 1% FBS conditions), and grown overnight in a 5% CO2 and 37° C. incubator. […]
The experimental results were fitted to the IC50 using Graphpad Prism 7. […] The results were expressed as Standard Deviation (SD) or Standard Error (SE).

Human ACLY, sequence (P53396 whole entry): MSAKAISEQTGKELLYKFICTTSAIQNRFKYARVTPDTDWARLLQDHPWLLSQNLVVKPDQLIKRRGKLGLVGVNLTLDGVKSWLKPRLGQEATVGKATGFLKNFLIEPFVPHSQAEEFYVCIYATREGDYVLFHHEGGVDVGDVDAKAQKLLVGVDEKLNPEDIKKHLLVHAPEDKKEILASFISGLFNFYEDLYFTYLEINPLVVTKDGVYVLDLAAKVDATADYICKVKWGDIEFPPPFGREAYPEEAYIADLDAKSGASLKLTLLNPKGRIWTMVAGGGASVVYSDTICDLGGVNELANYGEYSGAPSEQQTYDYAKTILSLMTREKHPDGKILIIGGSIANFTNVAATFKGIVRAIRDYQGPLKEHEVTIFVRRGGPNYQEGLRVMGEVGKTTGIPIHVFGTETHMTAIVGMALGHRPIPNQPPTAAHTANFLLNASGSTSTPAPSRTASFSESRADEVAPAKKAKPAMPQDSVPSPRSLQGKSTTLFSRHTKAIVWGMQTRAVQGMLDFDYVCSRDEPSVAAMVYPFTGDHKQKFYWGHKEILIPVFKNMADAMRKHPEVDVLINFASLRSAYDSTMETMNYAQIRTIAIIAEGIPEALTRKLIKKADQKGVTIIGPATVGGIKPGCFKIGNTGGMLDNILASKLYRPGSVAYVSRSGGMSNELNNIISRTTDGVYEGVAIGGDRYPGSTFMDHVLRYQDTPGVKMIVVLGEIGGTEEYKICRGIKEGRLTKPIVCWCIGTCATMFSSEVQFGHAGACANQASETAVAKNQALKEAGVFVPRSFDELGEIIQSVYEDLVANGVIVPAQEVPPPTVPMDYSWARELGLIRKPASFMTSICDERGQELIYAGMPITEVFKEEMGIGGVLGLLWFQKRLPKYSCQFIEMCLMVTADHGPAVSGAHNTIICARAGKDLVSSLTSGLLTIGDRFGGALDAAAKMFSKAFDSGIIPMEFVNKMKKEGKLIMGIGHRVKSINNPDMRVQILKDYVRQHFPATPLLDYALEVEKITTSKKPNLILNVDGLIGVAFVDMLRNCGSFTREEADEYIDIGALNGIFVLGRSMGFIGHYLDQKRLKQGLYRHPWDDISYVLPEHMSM

For the molecule `O=C(O)C1(CCCCCC/C=C\CCCCCCC2(C(=O)O)CCCC2)CCCC1` [Compound M4], the IC50 at Human ACLY was 22.6 ± 2.7 µM. Still for that read-out and setting: the result for `CC(CCCCCCC=CCCCCCCC(C)(C(=O)O)c1ccccc1)(C(=O)O)c1ccccc1` (centres unmarked) [Compound M1] reads 1.7 ± 0.3 µM. With `COC(=O)c1cc(Cl)c(O)c(S(=O)(=O)Nc2cc(-c3ccccc3)c(F)cc2F)c1` [NDI-091143, reference compound], the IC50 came out at 0.0021 ± 0.0004 µM against Human ACLY; 84.8 ± 45.3 µM in the assay with breast cancer cell MCF-7; 83.3 ± 34.7 µM in assay [1]; 40.9 ± 14.3 µM in assay [2]; 50.2 ± 27.7 µM in the assay with NCI-H358 cells. Regarding `CC(CCCCCC/C=C\CCCCCCCC(C)(C(=O)O)c1ccccc1)(C(=O)O)c1ccccc1` (centres unmarked) [Compound M11], the IC50 on Human ACLY worked out at 1.9 ± 0.31 µM.

The molecule `CC(C)(CCCCCCC=C(CCCCCCC(C)(C)C(=O)O)c1ccc(C(=O)N2CCN(c3ccccn3)CC2)cc1)C(=O)O` [Compound M36] registered an IC50 against Human ACLY of 4.57 ± 0.41 µM. Turning to `O=C(O)C1(CCCCCC/C=C\CCCCCCC2(C(=O)OCCc3ccc(Cl)cc3)C=CCC2)C=CCC1` (centres unmarked) [Compound M30], at Human ACLY, the IC50 came to 19.9 ± 7.8 µM. Regarding `O=C(O)C1(CCCCCC/C=C\CCCCCCC2(C(=O)O)C=CCC2)C=CCC1` (centres unmarked) [Compound M5], the IC50 against Human ACLY is 1.5 ± 0.45 µM; in the assay on A549 cells, 12.5 ± 1.2 µM; in the assay with breast cancer cell MCF-7, 31.8 ± 1.7 µM; in assay [1], 27.3 ± 0.8 µM; in assay [2], 13.5 ± 18 µM; in the assay on NCI-H358 cells, 23.6 ± 1.9 µM. On Human ACLY, `O=C(O)C1(CCCCCC/C=C\CCCCCCC2(C(=O)OCc3ccc(Cl)cc3Cl)C=CCC2)C=CCC1` (centres unmarked) [Compound M24] gave an IC50 of 5.5 ± 1.9 µM. With `O=C(O)C1(CCCCCC/C=C\CCCCCCCC2(C(=O)O)CC=CC2)CC=CC1` [Compound M3], the IC50 on Human ACLY worked out at 1 ± 0.13 µM.

In turn, `O=C(O)C1(CCCCCC/C=C\CCCCCCC2(C(=O)OCCc3ccccc3F)C=CCC2)C=CCC1` (centres unmarked) [Compound M23] came in with an IC50 at Human ACLY of 3.3 ± 0.72 µM.

At Human ACLY, `O=C(O)C1(CCCCCC/C=C\CCCCCCCC2(C(=O)O)CC=CCC2)CC=CCC1` (centres unmarked) [Compound M12] had an IC50 of 3.9 ± 0.2 µM. For `O=C(O)C1(CCCCCC/C=C\CCCCCCC2(C(=O)OCCc3ccc4ccccc4c3)C=CCC2)C=CCC1` (centres unmarked) [Compound M29], the IC50 amounted to 5.8 ± 1.8 µM against Human ACLY; 6.5 ± 0.4 µM in the assay with breast cancer cell MCF-7; 28 ± 10.1 µM in assay [1]; 12.8 ± 1.6 µM in assay [2]; 9 ± 1.9 µM in the assay on NCI-H358 cells.

For `O=C(O)C1(CCCCCC/C=C\CCCCCCC2(C(=O)OCCc3ccccc3Cl)C=CCC2)C=CCC1` (centres unmarked) [Compound M31], the IC50 against Human ACLY came to 8.5 ± 3.2 µM. Same read-out and setting: the result for `O=C(O)C1(CCCCCC/C=C\CCCCCCC2(C(=O)OCCc3ccccc3)C=CCC2)C=CCC1` (centres unmarked) [Compound M27] reads 7.7 ± 0.39 µM; that for `C=CC(C)(CCCCCC/C=C\CCCCCCC(C)(C=C)C(=O)O)C(=O)O` (centres unmarked) [Compound M7], 4.1 ± 1.7 µM; that for `O=C(O)C1(CCCCCC/C=C\CCCCCCC2(C(=O)O)CC=CC2)CC=CC1` [Compound M2], 2.9 ± 0.95 µM.
